According to PMC6407578, “Synthesis and biological evaluation of ursolic acid derivatives bearing triazole moieties as potential anti-Toxoplasma gondii agents” (Journal of Enzyme Inhibition and Medicinal Chemistry, 2019):

Key:
HeLa cells = assay: Cytotoxicity on HeLa host cells (MTT); assay type: cell-based; conditions: Homo sapiens, HeLa, median toxicity dose, cytotoxicity against host cells, 24 h
Experimental: (§1) The cytotoxicity of compounds was determined using the previously published thiazolyl blue-based colorimetric method. For this, HeLa cells were used as host cells and their ability to resist invasion by T. gondii RH strain tachyzoites in vitro was checked. The cells were plated in 96-well plates at an appropriate density to ensure exponential growth throughout the experimental period (3 × 10^3 cells per well) and then allowed to adhere for 24 h at 37 °C. The cells were infected with T. gondii (1.5 × 10^4 tachyzoites/well), followed by incubation for 24 h. All compounds were prepared in dimethyl sulfoxide (DMSO) at a stock concentration of 100 mM. Serial dilutions (1–1000 μM) of each compound were tested. Spiramycin was used as a positive control. After 24 h of incubation, 10 μL of MTT solution were added to each well and cells were incubated for a further 2 h. The optical density (OD) was read on a microplate reader at a wavelength of 492 nm. The IC50 in HeLa cells, IC50 in T. gondii and selectivity index were calculated using Microsoft Excel.

[1] = system: T. gondii RH strain tachyzoites; assay: In vitro T. gondii growth inhibition in HeLa host cells (MTT); assay type: cell-based, Toxoplasma gondii; conditions: for IC50: Toxoplasma gondii, median inhibitory concentration, tachyzoite inhibition, HeLa host cells, 24 h; for SI (selectivity index): IC50 in HeLa cells/IC50 in T. gondii
Experimental: as §1

Structure (SMILES)	IC50 (HeLa cells) [µM]	IC50 [1] [µM]	melting point [°C]	SI (selectivity index) [1]
C[C@H]1[C@H](C)CC[C@]2(C(=O)O)CC[C@]3(C)C(=CC[C@@H]4[C@@]5(C)C/C(=C\c6cn(-c7ccccc7)nn6)C(=O)C(C)(C)[C@@H]5CC[C@]43C)[C@H]12 [1a, (1S,2R,4aS,6aS,6bR,8aR,12aR,12bR,14bS,E)-1,2,6a,6b,9,9,12a-heptamethyl-10-oxo-11-((1-phenyl-1H-1,2,3-triazol-4-yl)methylene)-1,3,4,5,6,6a,6b,7,8,8a,9,10,11,12,12a,12b,13,14b-octadecahydropicene-4a(2H)-carboxylic acid]	> 1000	> 1000	> 250	
C[C@H]1[C@H](C)CC[C@]2(C(=O)OCC(=O)NCc3cn(-c4ccc(Cl)c(Cl)c4)nn3)CC[C@]3(C)C(=CC[C@@H]4[C@@]5(C)CCC(O)C(C)(C)[C@@H]5CC[C@]43C)[C@H]12 (stereo partly drawn) [2e, (1S,2R,4aS,6aS,6bR,8aR,12aR,12bR,14bS)-2-((1–(3,4-dichlorophenyl)-1H-1,2,3-triazol-4-yl)methylamino)-2-oxoethyl-10-hydroxy-1,2,6a,6b,9,9,12a-heptamethyl-1,2,3,4,4a,5,6,6a,6b,7,8,8a,9,10,11,12,12a,12b,13,14b-icosahydropicene-4a-carboxylate]	> 1000	> 1000	203 to 204	
Cc1ccc(-n2cc(CNC(=O)COC(=O)[C@]34CC[C@@H](C)[C@H](C)[C@H]3C3=CC[C@@H]5[C@@]6(C)CCC(O)C(C)(C)[C@@H]6CC[C@@]5(C)[C@]3(C)CC4)nn2)cc1 (stereo partly drawn) [2d, (1S,2R,4aS,6aS,6bR,8aR,12aR,12bR,14bS)-2-oxo-2-((1-p-tolyl-1H-1,2,3-triazol-4-yl)methylamino)ethyl-10-hydroxy-1,2,6a,6b,9,9,12a-heptamethyl-1,2,3,4,4a,5,6,6a,6b,7,8,8a,9,10,11,12,12a,12b,13,14b-icosahydropicene-4a-carboxylate]	> 1000	> 1000	186 to 187	
COc1ccccc1-n1cc(/C=C2\C[C@]3(C)[C@H]4CC=C5[C@@H]6[C@@H](C)[C@H](C)CC[C@]6(C(=O)O)CC[C@@]5(C)[C@]4(C)CC[C@H]3C(C)(C)C2=O)nn1 [1i, (1S,2R,4aS,6aS,6bR,8aR,12aR,12bR,14bS,E)-11-((1–(2-methoxyphenyl)-1H-1,2,3-triazol-4-yl)methylene)-1,2,6a,6b,9,9,12a-heptamethyl-10-oxo-1,3,4,5,6,6a,6b,7,8,8a,9,10,11,12,12a,12b,13,14b-octadecahydropicene-4a(2H)-carboxylic acid]	> 1000	> 1000	> 250	
COc1ccc(-c2nncn2CCOC(=O)[C@]23CC[C@@H](C)[C@H](C)[C@H]2C2=CC[C@@H]4[C@@]5(C)CCC(O)C(C)(C)[C@@H]5CC[C@@]4(C)[C@]2(C)CC3)cc1 (stereo partly drawn) [3e, 2 –(3-(4-methoxyphenyl)-4H-1,2,4-triazol-4-yl)ethyl(1S,2R,4aS,6aS,6bR,8aR,12aR,12bR,14bS)-10-hydroxy-1,2,6a,6b,9,9,12a-heptamethyl-1,3,4,5,6,6a,6b,7,8,8a,9,10,11,12,12a,12b,13,14b-octadecahydropicene-4a(2H)-carboxylate]	78.2	116	233 to 235	0.67
C[C@H]1[C@H](C)CC[C@]2(C(=O)O)CC[C@]3(C)C(=CC[C@@H]4[C@@]5(C)C/C(=C\c6cn(-c7ccccc7F)nn6)C(=O)C(C)(C)[C@@H]5CC[C@]43C)[C@H]12 [1b, (1S,2R,4aS,6aS,6bR,8aR,12aR,12bR,14bS,E)-11-((1–(2-fluorophenyl)-1H-1,2,3-triazol-4-yl)methylene)-1,2,6a,6b,9,9,12a-heptamethyl-10-oxo-1,3,4,5,6,6a,6b,7,8,8a,9,10,11,12,12a,12b,13,14b-octadecahydropicene-4a(2H)-carboxylic acid]	420	712	> 250	0.59
C[C@H]1[C@H](C)CC[C@]2(C(=O)O)CC[C@]3(C)C(=CC[C@@H]4[C@@]5(C)C/C(=C\c6cn(-c7ccc(Cl)c(Cl)c7)nn6)C(=O)C(C)(C)[C@@H]5CC[C@]43C)[C@H]12 [1f, (1S,2R,4aS,6aS,6bR,8aR,12aR,12bR,14bS,E)-11-((1–(3,4-dichlorophenyl)-1H-1,2,3-triazol-4-yl)methylene)-1,2,6a,6b,9,9,12a-heptamethyl-10-oxo-1,3,4,5,6,6a,6b,7,8,8a,9,10,11,12,12a,12b,13,14b-octadecahydropicene-4a(2H)-carboxylic acid]	408	462	> 250	0.88
COc1ccc(-n2cc(CNC(=O)COC(=O)[C@]34CC[C@@H](C)[C@H](C)[C@H]3C3=CC[C@@H]5[C@@]6(C)CCC(O)C(C)(C)[C@@H]6CC[C@@]5(C)[C@]3(C)CC4)nn2)cc1 (stereo partly drawn) [2c, (1S,2R,4aS,6aS,6bR,8aR,12aR,12bR,14bS)-2-((1–(4-methoxyphenyl)-1H-1,2,3-triazol-4-yl)methylamino)-2-oxoethyl-10-hydroxy-1,2,6a,6b,9,9,12a-heptamethyl-1,2,3,4,4a,5,6,6a,6b,7,8,8a,9,10,11,12,12a,12b,13,14b-icosahydropicene-4a-carboxylate]	> 1000	> 1000	180 to 181	
C[C@H]1[C@H](C)CC[C@]2(C(=O)OCC(=O)NCc3cn(-c4ccccc4)nn3)CC[C@]3(C)C(=CC[C@@H]4[C@@]5(C)CCC(O)C(C)(C)[C@@H]5CC[C@]43C)[C@H]12 (stereo partly drawn) [2a, (1S,2R,4aS,6aS,6bR,8aR,12aR,12bR,14bS)-2-oxo-2-((1-phenyl-1H-1,2,3-triazol-4-yl)methylamino)ethyl-10-hydroxy-1,2,6a,6b,9,9,12a-heptamethyl-1,2,3,4,4a,5,6,6a,6b,7,8,8a,9,10,11,12,12a,12b,13,14b-icosahydropicene-4a-carboxylate]	837	> 1000	170 to 172	
C[C@H]1[C@H](C)CC[C@]2(C(=O)O)CC[C@]3(C)C(=CC[C@@H]4[C@@]5(C)C/C(=C\c6cn(-c7ccccc7Br)nn6)C(=O)C(C)(C)[C@@H]5CC[C@]43C)[C@H]12 [1g, (1S,2R,4aS,6aS,6bR,8aR,12aR,12bR,14bS,E)-11-((1–(2-bromophenyl)-1H-1,2,3-triazol-4-yl)methylene)-1,2,6a,6b,9,9,12a-heptamethyl-10-oxo-1,3,4,5,6,6a,6b,7,8,8a,9,10,11,12,12a,12b,13,14b-octadecahydropicene-4a(2H)-carboxylic acid]	240	302		0.80
C[C@H]1[C@H](C)CC[C@]2(C(=O)OCCn3cnnc3-c3ccccc3)CC[C@]3(C)C(=CC[C@@H]4[C@@]5(C)CCC(O)C(C)(C)[C@@H]5CC[C@]43C)[C@H]12 (stereo partly drawn) [3a, 2 –(3-phenyl-4H-1,2,4-triazol-4-yl)ethyl(1S,2R,4aS,6aS,6bR,8aR,12aR,12bR,14bS)-10-hydroxy-1,2,6a,6b,9,9,12a-heptamethyl-1,3,4,5,6,6a,6b,7,8,8a,9,10,11,12,12a,12b,13,14b-octadecahydropicene-4a(2H)-carboxylate]	102	88		1.15
C[C@H]1[C@H](C)CC[C@]2(C(=O)O)CC[C@]3(C)C(=CC[C@@H]4[C@@]5(C)C/C(=C\c6cn(-c7ccccc7I)nn6)C(=O)C(C)(C)[C@@H]5CC[C@]43C)[C@H]12 [1h, (1S,2R,4aS,6aS,6bR,8aR,12aR,12bR,14bS,E)-11-((1–(2-iodophenyl)-1H-1,2,3-triazol-4-yl)methylene)-1,2,6a,6b,9,9,12a-heptamethyl-10-oxo-1,3,4,5,6,6a,6b,7,8,8a,9,10,11,12,12a,12b,13,14b-octadecahydropicene-4a(2H)-carboxylic acid]	230	274		0.84
COc1cc(-n2cc(/C=C3\C[C@]4(C)[C@H]5CC=C6[C@@H]7[C@@H](C)[C@H](C)CC[C@]7(C(=O)O)CC[C@@]6(C)[C@]5(C)CC[C@H]4C(C)(C)C3=O)nn2)cc(OC)c1OC [1j, (1S,2R,4aS,6aS,6bR,8aR,12aR,12bR,14bS,E)-1,2,6a,6b,9,9,12a-heptamethyl-10-oxo-11-((1–(3,4,5-trimethoxyphenyl)-1H-1,2,3-triazol-4-yl)methylene)-1,3,4,5,6,6a,6b,7,8,8a,9,10,11,12,12a,12b,13,14b-octadecahydropicene-4a(2H)-carboxylic acid]	354	301		1.17
C[C@H]1[C@H](C)CC[C@]2(C(=O)OCCn3cnnc3-c3ccc(F)cc3)CC[C@]3(C)C(=CC[C@@H]4[C@@]5(C)CCC(O)C(C)(C)[C@@H]5CC[C@]43C)[C@H]12 (stereo partly drawn) [3c, 2 –(3-(4-fluorophenyl)-4H-1,2,4-triazol-4-yl)ethyl(1S,2R,4aS,6aS,6bR,8aR,12aR,12bR,14bS)-10-hydroxy-1,2,6a,6b,9,9,12a-heptamethyl-1,3,4,5,6,6a,6b,7,8,8a,9,10,11,12,12a,12b,13,14b-octadecahydropicene-4a(2H)-carboxylate]	88.2	61.4		1.44
